Results taken from patent US8114381B2, “Radiolabeled compounds and compositions, their precursors and methods for their production” (The University of British Columbia, priority 2004, dated 2012).

Key:
Assay type in all cases: physicochemical
[1] = Spectroscopic study of protecting group hydrolysis rate; details: 200 mM Acetic acid at pH 3.5, 2 mM boron compound, 20 mM KHF2
Description: Prior to ^18F-labeling of the final DNA compound or other boron-based fluoride acceptors, dilute labeling conditions were developed for 4-(4,4,5,5-Tetramethyl-1,3,2-dioxaborolan-2-yl) aniline with cold ^19F and the expectation that these labeling conditions can be extrapolated onto ^18F studies. The general conditions established are as follows: 200 mM Acetic acid at pH 3.5, with 2 mM boron compound, and 20 mM KHF2.

[2] = Kinetics of fluorination of boron compound with KHF2; details: 100 mM Acetic acid at pH 3.5
From the text: Prior to ^18F-labeling of the final DNA compound or other boron-based fluoride acceptors, dilute labeling conditions were developed for 4-(4,4,5,5-Tetramethyl-1,3,2-dioxaborolan-2-yl) aniline with cold ^19F and the expectation that these labeling conditions can be extrapolated onto ^18F studies. […]

[3] = 19F NMR stability of B-F bond with 20 mM boric acid chase or in presence of boric acid; details: 20 mM boric acid chase (chase at 1 h, NMR at 2 h) or fluorination in presence of 20 mM boric acid
Description: Fluorination after a 20 mM boric acid chase (chase at 1 h, NMR taken at 2 h): ^19F NMR (300 MHz, D2O, TFA ref) δ −50.23 (fluorine-boric acid species #1), δ−53.89 (KHF2), δ −62.3 (fluorine-boric acid species #2), δ −66.30 (s, φBF3). Fluorination in the presence of boric acid: ^19F NMR (300 MHz, D2O, TFA ref) δ −50.02 (fluorine-boric acid species #1), δ −52.47 (KHF2), δ −62.0 (fluorine-boric acid species #2), δ −65.65 (s, φBF3).

| Compound | protecting group hydrolysis rate [1] [min⁻¹] | rate of fluorination [2] [min⁻¹] | stability of B—F bond (persistence of 19F NMR peak near δ −66) [3] |
| --- | --- | --- | --- |
| CC1(C)OB(c2ccc(N)cc2)OC1(C)C [4-(4,4,5,5-Tetramethyl-1,3,2-dioxaborolan-2-yl) aniline] | 0.66 ± 0.04 | 2.8 ± 0.3 |  |
| [NH3+]c1ccc([B-](F)(F)F)cc1 [φBF3, 4-Ammoniumphenyl Trifluoroborate] |  |  | stable |
